Data from PubChem BioAssay (NCI).
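48-hour exposure; five concentrations; linearly interpolated endpoints. Here, GI50 denotes the concentration required for 50% inhibition of growth. TGI marks complete inhibition of growth.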

Legend:
Test in all cases: NCI anticancer screen, dose series, 48 h
[1] = system: U251 CNS
[2] = system: SR leukemia
[3] = system: UO-31 renal
[4] = system: HOP-62 NSCLC
[5] = system: NCI-H23 lung
[6] = system: IGROV1 ovarian
[7] = system: OVCAR-8 ovarian
[8] = system: MALME-3M melanoma
[9] = system: ACHN renal
[10] = system: A498 renal

Structure (SMILES)	GI50 [1]	TGI [1]	GI50 [2]	TGI [2]	GI50 [3]	TGI [3]	GI50 [4]	TGI [4]	GI50 [5]	TGI [5]	GI50 [6]	TGI [6]	GI50 [7]	TGI [7]	GI50 [8]	TGI [8]	GI50 [9]	TGI [9]	GI50 [10]	TGI [10]
COC(=O)[C@@H](C)CNS(=O)(=O)N(c1cc(C(F)(F)F)cc(C(F)(F)F)c1)C1CCN(Cc2ccc(F)cc2)CC1	10.2 µM	27.9 µM	3.81 µM	9.22 µM	11.7 µM	26 µM	15 µM	29 µM	12.2 µM	25.9 µM	18.8 µM	44.9 µM	14.6 µM	33.4 µM	6.89 µM	22.3 µM	14 µM	30 µM	12.8 µM	26.2 µM
CCOC(=O)c1c(C)n(Cc2ccc(Cl)cc2Cl)c2c1c(CN(C)C)c(O)c1[nH]cnc12	14.8 µM	27.9 µM	0.557 µM	4.76 µM	18.9 µM	36.5 µM	12.8 µM	29.5 µM	0.271 µM	5.95 µM	17.1 µM	31.5 µM	15.1 µM	28.3 µM	21.2 µM	42.9 µM	15.4 µM	28.7 µM	20 µM	35 µM
NS(=O)(=O)c1ccc(NC2(C(=O)O)CCCC2)cc1	–	> 100 µM	–	> 100 µM	–	> 100 µM	–	> 100 µM	–	> 100 µM	–	> 100 µM	–	> 100 µM	–	> 100 µM	–	> 100 µM	–	> 100 µM
O=C(N/N=C/c1ccc(Cl)cc1)c1ccc(C(F)(F)F)nc1Nc1cccc(C(F)(F)F)c1	1.55 µM	10.2 µM	0.879 µM	5.71 µM	1.66 µM	5.42 µM	2.47 µM	10.9 µM	2.31 µM	8.74 µM	2.4 µM	10.5 µM	2.23 µM	15.1 µM	3.86 µM	23 µM	2.73 µM	8.77 µM	2.24 µM	8.69 µM
c1cc(CNC23CC4CC(CC(C4)C2)C3)cc(C[N+](Cc2cccc(CNC34CC5CC(CC(C5)C3)C4)c2)(Cc2cccc(CNC34CC5CC(CC(C5)C3)C4)c2)Cc2cccc(CNC34CC5CC(CC(C5)C3)C4)c2)c1 (stereo not given)	4.68 µM	11.3 µM	6.22 µM	209 µM	3.41 µM	8.21 µM	11.1 µM	42.1 µM	6.38 µM	26.6 µM	3.7 µM	9.8 µM	8.64 µM	35.4 µM	3.51 µM	7.77 µM	3.65 µM	8.92 µM	4.98 µM	29.5 µM
